Data: PubChem BioAssay AID1963836 (Molecular Pharmacology Branch, DTP, NCI, 2024)

Test system: 857933-349-R-J2-PDC complex spheroid viability
Assay: Anticancer human tumor 857933-349-R-J2-PDC patient-derived colon adenocarcinoma cell line growth inhibition [POLQ]
Settings: for IC50: curve of first compound; for viability, T/C: stronger effect = lower value
Method: Multicellular complex tumor spheroid response to Polymerase (POL) inhibitors (novobiocin, ART-558, RP6685) in combination with a variety of drugs and investigational agents in selected tumor cell lines
The POL inhibitors (novobiocin, ART-558, and RP6685) were evaluated both individually and in combination with standard of care and investigational anticancer small molecules within a complex spheroid model of solid tumors. . Complex spheroids include a stromal component modeled by human endothelial cells (HUVEC) and fibroblasts modeled by human mesenchymal stem cells (MSCs). The concentration ranges selected for each drug and investigational agent were based upon clinically achievable concentrations if the clinical Cmax of the agent was known.
Compounds. The drugs and investigational agents: novobiocin (NSC847541), ART-558 (NSC835418), RP-6685 (NSC848927), peposertib (NSC802822), ceralasertib (NSC780249), elimusertib (NSC800525), camonsertib (NSC841442), AZD-1390 (NSC803789), olaparib (NSC753686), talazoparib (NSC767125), rucaparib (NSC756644), sotorasib (NSC818433), MRTX-1133 (NSC836407), SN-38 (NSC673596), topotecan (NSC609699), epotoside (NSC141540), doxorubicin (NSC123127), gemcitabine (NSC613327), 5-fluorouracil (NSC19893), paclitaxel (NSC125973), vemurafenib (NSC761431), MSA-2 (NSC828583), SN-011 (NSC837082), adavosertib (NSC754352), prexasertib (NSC758257), carboplatin (NSC241240) and oxaliplatin (NSC266046), were obtained from the National Cancer Institute (NCI) Developmental Therapeutics Program Chemical Repository (21). The FDA-approved anticancer drug set is available from the Developmental Therapeutics Program at https://dtp.cancer.gov/organization/dscb/obtaining/. […] The stock solutions were prepared in dimethyl sulfoxide (DMSO, Sigma-Aldrich, St. Louis, MO, cat. D2650), except for the platinum compounds which were prepared in saline (Quality Biological, Gaithersburg, MD, cat. 114-055-101), at 800-fold the tested concentration and stored at -70 degrees C prior to their use. All drugs and investigational agents were tested over a range starting from a high concentration at or near the clinical Cmax and decreasing in half-log increments. If the clinical Cmax for an agent had not been determined, the highest concentration tested was 10 microM, except for SN-38, which was tested at a high concentration of 1 microM.
Cell Culture. All cells were maintained in an incubator at 37 degrees C and 5% CO2 with 95% humidity. The PDC lines were cultured according to standard operating procedures established by the NCI PDMR (https://pdmr.cancer.gov). Table 3 of the manuscript, lists the cell lines along with the number of the three cell types plated to form the mct-spheroids and media for tumor cell growth. After thawing, all PDC lines, except 997537-175-T-J1-PDC and 415267-285-R-J2-PDC, were cultured in Matrigel-coated flasks prepared with a working solution of 1X Ham's F-12 nutrient mix, without supplementation (Thermo Fisher Scientific, cat. 11765054), 100 U/mL penicillin-streptomycin (Thermo Fisher Scientific, cat. 15140122), and 2.5% Matrigel (Corning Inc., Corning, NY, cat. 354248) for the first three passages. The two PDC lines 997537-175-T-J1-PDC and 415267-285-R-J2-PDC were cultured on uncoated flasks. The 857933-349-R-J2-PDC line was cultured in 6C/Colon 1B media containing advanced DMEM/F-12 (Thermo Fisher Scientific, cat. 12634028), 10 mM HEPES (Thermo Fisher Scientific, cat. 15630080), 1X GlutaMAX supplement (Thermo Fisher Scientific, cat. 35050061), 0.1 mg/mL primocin (InvivoGen, San Diego, CA, cat. ant-pm-2), 10% defined fetal bovine serum, heat inactivated (HyClone Laboratories Inc., Logan, UT, cat. SH30070.03HI), 50% L-WRN conditioned media (ATCC, cat. CRL-3276), 1.25 mM N-Acetyl-L-cysteine (Sigma-Aldrich, cat. A9165), 10 mM nicotinamide (Sigma-Aldrich, cat. N0636), 1X B-27 supplement (Thermo Fisher Scientific, cat. 17504044), 1X N-2 supplement (Thermo Fisher Scientific, cat. […]

[1] = second compound 0.0316 µM, first compound 0.0316 µM
[2] = second compound 0.0316 µM, first compound 0.1 µM
[3] = second compound 0.0316 µM, first compound 0.316 µM
[4] = second compound 0.0316 µM, first compound 1 µM
[5] = second compound 0.0316 µM, first compound 3.16 µM
[6] = second compound 0.0316 µM, first compound 10 µM
[7] = second compound 0.1 µM, first compound 0.0316 µM
[8] = second compound 0.1 µM, first compound 0.1 µM
[9] = second compound 0.1 µM, first compound 0.316 µM
[10] = second compound 0.1 µM, first compound 1 µM
[11] = second compound 0.1 µM, first compound 3.16 µM
[12] = second compound 0.1 µM, first compound 10 µM
[13] = second compound 0.316 µM, first compound 0.0316 µM
[14] = second compound 0.316 µM, first compound 0.1 µM
[15] = second compound 0.316 µM, first compound 0.316 µM
[16] = second compound 0.316 µM, first compound 1 µM
[17] = second compound 0.316 µM, first compound 3.16 µM
[18] = second compound 0.316 µM, first compound 10 µM
[19] = second compound 1 µM, first compound 0.0316 µM
[20] = second compound 1 µM, first compound 0.1 µM
[21] = second compound 1 µM, first compound 0.316 µM
[22] = second compound 1 µM, first compound 1 µM
[23] = second compound 1 µM, first compound 3.16 µM
[24] = second compound 1 µM, first compound 10 µM
[25] = second compound 3.16 µM, first compound 0.0316 µM
[26] = second compound 3.16 µM, first compound 0.1 µM
[27] = second compound 3.16 µM, first compound 0.316 µM
[28] = second compound 3.16 µM, first compound 1 µM
[29] = second compound 3.16 µM, first compound 3.16 µM
[30] = second compound 3.16 µM, first compound 10 µM
[31] = second compound 10 µM, first compound 0.0316 µM
[32] = second compound 10 µM, first compound 0.1 µM
[33] = second compound 10 µM, first compound 0.316 µM
[34] = second compound 10 µM, first compound 1 µM
[35] = second compound 10 µM, first compound 3.16 µM
[36] = second compound 10 µM, first compound 10 µM
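Note: spheroids exposed to compounds for seven days before readout.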

## C#Cc1c(F)ccc2cc(O)cc(-c3ncc4c(N5CC6CCC(C5)N6)nc(OCC56CCCN5CC(F)C6)nc4c3F)c12 (stereo unspecified) + Cc1cccc(N(C)C(=O)C2C(O)CCN2c2nc(C)cc(C(F)(F)F)c2C#N)c1
Second compound 0.0316 µM
  IC50: > 10 µM
Second compound 0.1 µM
  IC50: > 10 µM
Second compound 0.316 µM
  IC50: > 10 µM
Second compound 1 µM
  IC50: > 10 µM
Second compound 3.16 µM
  IC50: > 10 µM
Second compound 10 µM
  IC50: > 10 µM
[1]
  viability, T/C: 91.7%
[2]
  viability, T/C: 105%
[3]
  viability, T/C: 101%
[4]
  viability, T/C: 89.2%
[5]
  viability, T/C: 89.4%
[6]
  viability, T/C: 82.8%
[7]
  viability, T/C: 107%
[8]
  viability, T/C: 97.8%
[9]
  viability, T/C: 96.3%
[10]
  viability, T/C: 76.8%
[11]
  viability, T/C: 89.2%
[12]
  viability, T/C: 74.2%
[13]
  viability, T/C: 101%
[14]
  viability, T/C: 110%
[15]
  viability, T/C: 103%
[16]
  viability, T/C: 80.3%
[17]
  viability, T/C: 96.1%
[18]
  viability, T/C: 91.4%
[19]
  viability, T/C: 87%
[20]
  viability, T/C: 87.1%
[21]
  viability, T/C: 85.6%
[22]
  viability, T/C: 87.5%
[23]
  viability, T/C: 91%
[24]
  viability, T/C: 87.6%
[25]
  viability, T/C: 97.7%
[26]
  viability, T/C: 90.2%
[27]
  viability, T/C: 85.9%
[28]
  viability, T/C: 90.8%
[29]
  viability, T/C: 101%
[30]
  viability, T/C: 84.2%
[31]
  viability, T/C: 80.8%
[32]
  viability, T/C: 86.9%
[33]
  viability, T/C: 91%
[34]
  viability, T/C: 75.1%
[35]
  viability, T/C: 90.9%
[36]
  viability, T/C: 81.3%

## CCc1cc2c(N3CCc4c(cc(Cn5ccnc5)cc4-c4cn(C)nc4C(F)(F)F)C3=O)cc(C)nc2c(OC)n1 + Cc1cccc(N(C)C(=O)C2C(O)CCN2c2nc(C)cc(C(F)(F)F)c2C#N)c1
Second compound 0.0316 µM
  IC50: > 10 µM
Second compound 0.1 µM
  IC50: > 10 µM
Second compound 0.316 µM
  IC50: > 10 µM
Second compound 1 µM
  IC50: > 10 µM
Second compound 3.16 µM
  IC50: > 10 µM
Second compound 10 µM
  IC50: > 10 µM
[1]
  viability, T/C: 106%
[2]
  viability, T/C: 93.2%
[3]
  viability, T/C: 99%
[4]
  viability, T/C: 79.9%
[5]
  viability, T/C: 75.1%
[6]
  viability, T/C: 62.3%
[7]
  viability, T/C: 106%
[8]
  viability, T/C: 103%
[9]
  viability, T/C: 78.5%
[10]
  viability, T/C: 82%
[11]
  viability, T/C: 77.6%
[12]
  viability, T/C: 68.8%
[13]
  viability, T/C: 100%
[14]
  viability, T/C: 89.6%
[15]
  viability, T/C: 83.5%
[16]
  viability, T/C: 82.8%
[17]
  viability, T/C: 80.3%
[18]
  viability, T/C: 61.6%
[19]
  viability, T/C: 99.6%
[20]
  viability, T/C: 83%
[21]
  viability, T/C: 86.3%
[22]
  viability, T/C: 85.2%
[23]
  viability, T/C: 73.8%
[24]
  viability, T/C: 61.9%
[25]
  viability, T/C: 107%
[26]
  viability, T/C: 91.3%
[27]
  viability, T/C: 82.7%
[28]
  viability, T/C: 77.8%
[29]
  viability, T/C: 60.2%
[30]
  viability, T/C: 55.1%
[31]
  viability, T/C: 95.4%
[32]
  viability, T/C: 99.9%
[33]
  viability, T/C: 92.5%
[34]
  viability, T/C: 72.6%
[35]
  viability, T/C: 67.6%
[36]
  viability, T/C: 62.8%

## CC(=O)O[C@H]1C(=O)[C@@]2(C)[C@H]([C@H](OC(=O)c3ccccc3)[C@]3(O)C[C@H](OC(=O)[C@H](O)[C@@H](NC(=O)c4ccccc4)c4ccccc4)C(C)=C1C3(C)C)[C@]1(OC(C)=O)CO[C@@H]1C[C@@H]2O + Nc1ccc(C#CCN(C(=O)Cc2ncc(C(F)(F)F)cc2C(F)(F)F)c2ccc(F)cc2)nn1
Second compound 0.0316 µM
  IC50: < 0.00949 µM
Second compound 0.1 µM
  IC50: < 0.00949 µM
Second compound 0.316 µM
  IC50: 0.0128 µM
Second compound 1 µM
  IC50: 0.0112 µM
Second compound 3.16 µM
  IC50: 0.00973 µM
Second compound 10 µM
  IC50: 0.0113 µM
Second compound 0.0316 µM, first compound 0.00949 µM
  viability, T/C: 45%
Second compound 0.0316 µM, first compound 0.03 µM
  viability, T/C: 20.3%
Second compound 0.0316 µM, first compound 0.0949 µM
  viability, T/C: 13.2%
Second compound 0.0316 µM, first compound 0.3 µM
  viability, T/C: 10.6%
Second compound 0.0316 µM, first compound 0.949 µM
  viability, T/C: 12.3%
Second compound 0.0316 µM, first compound 3 µM
  viability, T/C: 15.7%
Second compound 0.1 µM, first compound 0.00949 µM
  viability, T/C: 45.8%
Second compound 0.1 µM, first compound 0.03 µM
  viability, T/C: 22.9%
Second compound 0.1 µM, first compound 0.0949 µM
  viability, T/C: 10.2%
Second compound 0.1 µM, first compound 0.3 µM
  viability, T/C: 15.6%
Second compound 0.1 µM, first compound 0.949 µM
  viability, T/C: 11.8%
Second compound 0.1 µM, first compound 3 µM
  viability, T/C: 15.2%
Second compound 0.316 µM, first compound 0.00949 µM
  viability, T/C: 58.1%
Second compound 0.316 µM, first compound 0.03 µM
  viability, T/C: 27.4%
Second compound 0.316 µM, first compound 0.0949 µM
  viability, T/C: 12.8%
Second compound 0.316 µM, first compound 0.3 µM
  viability, T/C: 14.9%
Second compound 0.316 µM, first compound 0.949 µM
  viability, T/C: 15.1%
Second compound 0.316 µM, first compound 3 µM
  viability, T/C: 17.1%
Second compound 1 µM, first compound 0.00949 µM
  viability, T/C: 54.5%
Second compound 1 µM, first compound 0.03 µM
  viability, T/C: 24.8%
Second compound 1 µM, first compound 0.0949 µM
  viability, T/C: 14.6%
Second compound 1 µM, first compound 0.3 µM
  viability, T/C: 14%
Second compound 1 µM, first compound 0.949 µM
  viability, T/C: 17.4%
Second compound 1 µM, first compound 3 µM
  viability, T/C: 14.8%
Second compound 3.16 µM, first compound 0.00949 µM
  viability, T/C: 50.6%
Second compound 3.16 µM, first compound 0.03 µM
  viability, T/C: 20.1%
Second compound 3.16 µM, first compound 0.0949 µM
  viability, T/C: 16.1%
Second compound 3.16 µM, first compound 0.3 µM
  viability, T/C: 11.7%
Second compound 3.16 µM, first compound 0.949 µM
  viability, T/C: 17.3%
Second compound 3.16 µM, first compound 3 µM
  viability, T/C: 18.6%
Second compound 10 µM, first compound 0.00949 µM
  viability, T/C: 54.2%
Second compound 10 µM, first compound 0.03 µM
  viability, T/C: 26.5%
Second compound 10 µM, first compound 0.0949 µM
  viability, T/C: 16.8%
Second compound 10 µM, first compound 0.3 µM
  viability, T/C: 14.9%
Second compound 10 µM, first compound 0.949 µM
  viability, T/C: 14.5%
Second compound 10 µM, first compound 3 µM
  viability, T/C: 20.3%
